Results published in patent publication EP4741386A1 (Jiangsu Yahong Meditech Co., Ltd., priority 2023, dated 2025).

Tests used:
MDA-MB-436 = experiment: CTG experiment for cell viability (CellTiter-Glo, 96-well plate, 7 days); format: cell-based; conditions: Homo sapiens, MDA-MB-436, 168 h, MDA-MB-436 cells, 7 days culture with compound
Summary of the method: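 Viability was read by CellTiter-Glo luminescence after 10 min at room temperature, once the compound-containing medium had been replaced with PBS. Before that, MDA-MB-436 cells grown in DMEM were exposed to compounds for 7 days at 37°C. Curve fitting followed the enzyme assay method.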

[1] = molecular target: T1, Recombinant human His6-USP1/His6-UAF1 complex protein (Homo sapiens, UniProt O94782); experiment: In vitro inhibitory activity against USP1 (Ubiquitin Rhodamine 110 fluorescence detection, 384-well plate); format: biochemical; conditions: Ub-Rho substrate, 1 hour pre-incubation, read after 30 minutes
T1 construct: His6; purchased R&D E-568-050
Summary of the method: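 Compounds, kept as 50 mM DMSO stocks, were acoustically dispensed into modified Tris buffer. Inhibition of recombinant human His6-USP1/His6-UAF1 was read by fluorescence from cleavage of Ub-Rho110 substrate.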

T1 sequence (O94782 whole entry): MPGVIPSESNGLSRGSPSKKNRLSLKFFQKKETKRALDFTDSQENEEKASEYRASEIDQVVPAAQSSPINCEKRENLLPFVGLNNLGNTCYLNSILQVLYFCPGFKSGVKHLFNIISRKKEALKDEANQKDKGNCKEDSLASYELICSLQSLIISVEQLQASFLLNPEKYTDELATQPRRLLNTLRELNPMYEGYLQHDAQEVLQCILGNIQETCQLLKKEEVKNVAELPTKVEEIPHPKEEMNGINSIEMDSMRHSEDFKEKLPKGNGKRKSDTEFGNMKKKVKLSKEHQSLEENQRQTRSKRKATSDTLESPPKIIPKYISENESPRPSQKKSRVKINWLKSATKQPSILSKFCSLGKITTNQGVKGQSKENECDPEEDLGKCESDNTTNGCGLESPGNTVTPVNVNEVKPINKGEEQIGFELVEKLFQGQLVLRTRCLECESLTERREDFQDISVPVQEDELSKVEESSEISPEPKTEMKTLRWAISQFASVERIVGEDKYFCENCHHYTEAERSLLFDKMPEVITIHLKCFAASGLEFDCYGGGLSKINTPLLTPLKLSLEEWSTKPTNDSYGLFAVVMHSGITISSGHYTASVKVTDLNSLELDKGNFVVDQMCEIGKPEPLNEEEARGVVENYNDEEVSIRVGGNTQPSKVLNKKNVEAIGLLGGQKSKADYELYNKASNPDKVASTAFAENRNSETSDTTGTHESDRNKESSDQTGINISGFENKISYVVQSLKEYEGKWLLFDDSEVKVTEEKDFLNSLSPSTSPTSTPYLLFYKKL
T1 sequence (Q8TAF3 whole entry partner): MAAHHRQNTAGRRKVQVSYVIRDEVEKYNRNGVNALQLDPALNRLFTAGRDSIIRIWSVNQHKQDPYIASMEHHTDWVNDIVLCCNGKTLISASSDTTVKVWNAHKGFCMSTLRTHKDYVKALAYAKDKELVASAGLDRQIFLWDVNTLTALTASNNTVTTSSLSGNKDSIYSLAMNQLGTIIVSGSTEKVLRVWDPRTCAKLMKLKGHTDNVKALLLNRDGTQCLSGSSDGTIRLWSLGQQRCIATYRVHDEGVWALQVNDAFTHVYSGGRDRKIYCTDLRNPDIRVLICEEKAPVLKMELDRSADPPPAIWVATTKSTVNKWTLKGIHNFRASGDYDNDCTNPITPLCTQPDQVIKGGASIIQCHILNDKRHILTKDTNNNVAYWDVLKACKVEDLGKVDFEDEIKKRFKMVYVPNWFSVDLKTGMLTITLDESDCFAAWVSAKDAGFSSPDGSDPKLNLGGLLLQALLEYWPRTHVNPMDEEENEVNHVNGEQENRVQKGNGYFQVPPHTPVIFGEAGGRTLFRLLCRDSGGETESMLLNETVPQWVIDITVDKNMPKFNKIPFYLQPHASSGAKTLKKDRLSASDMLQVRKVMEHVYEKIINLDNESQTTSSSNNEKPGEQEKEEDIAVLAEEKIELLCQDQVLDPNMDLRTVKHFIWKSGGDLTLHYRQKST

`COc1cnc(-c2c(OC)cnn2C(C)C)nc1NCc1ccc(-c2nc(C(F)(F)F)cn2C)cc1` [Example 180, 2-(1-Isopropyl-4-methoxy-1H-pyrazol-5-yl)-5-methoxy-N-(4-(1-methyl-4-(trifluoromethyl)-1H-imidazol-2-yl)benzyl)pyrimidin-4-amine] was tested, and the IC50 (MDA-MB-436) was 123 nM and the IC50 [1] was 15 nM.

`COc1cnc(-c2ccccc2C(C)C)nc1NCC1CCC(c2ccccn2)CC1` (stereo not drawn) [Example 63, 2-(2-Isopropylphenyl)-5-methoxy-N-((4-(pyridin-2-yl)cyclohexyl)methyl)pyrimidin-4-amine] showed an IC50 (MDA-MB-436) of 30 nM and an IC50 [1] of 3.3 nM.

With `C#Cc1cnc(-c2ccccc2C(C)C)nc1NCc1ccc(-c2nc(C(F)(F)F)cn2C)cc1` [Example 85, 5-Ethynyl-2-(2-isopropylphenyl)-N-(4-(1-methyl-4-(trifluoromethyl)-1H-imidazol-2-yl)benzyl)pyrimidin-4-amine] the IC50 (MDA-MB-436) was 22.5 nM and the IC50 [1] was 0.47 nM.

Work on `COc1cnn(C2CC2)c1-c1ncc(OC(F)F)c(NCc2ccc(-c3nc(C(F)(F)F)cn3C)cc2)n1` [Example 185, 2-(1-Cyclopropyl-4-methoxy-1H-pyrazol-5-yl)-5-(difluoromethoxy)-N-(4-(1-methyl-4-(trifluoromethyl)-1H-imidazol-2-yl)benzyl)pyrimidin-4-amine] yielded an IC50 (MDA-MB-436) of 120 nM and an IC50 [1] of 9.8 nM.

In the case of `COc1cc(CNc2nc(-c3c(OC)ncnc3C3CC3)ncc2OC)ccc1-c1nc(C(F)(F)F)cn1C` [Example 101, 4'-Cyclopropyl-5,6'-dimethoxy-N-(3-methoxy-4-(1-methyl-4-(trifluoromethyl)-1H-imidazol-2-yl)benzyl)-[2,5'-bipyrimidin]-4-amine], the IC50 (MDA-MB-436) is reported as 99.1 nM and the IC50 [1] is reported as 15 nM.

With `Cc1cc(C(F)(F)F)nn1-c1ccc(CN2C(=O)COc3cnc(-c4ccccc4C(C)C)nc32)cc1` [Example 15, 2-(2-Isopropylphenyl)-8-(4-(5-methyl-3-(trifluoromethyl)-1H-pyrazol-1-yl)benzyl)-6H-pyrimido[5,4-b][1,4]oxazin-7(8H)-one] the IC50 (MDA-MB-436) was 301 nM and the IC50 [1] was 6.8 nM.

In the case of `COc1cnc(-c2cccnc2C(C)C)nc1NCc1ccc(-c2nc(C(F)(F)F)cn2C)cc1` [Example 157, 2-(2-Isopropylpyridin-3-yl)-5-methoxy-N-(4-(1-methyl-4-(trifluoromethyl)-1H-imidazol-2-yl)benzyl)pyrimidin-4-amine], the IC50 (MDA-MB-436) is reported as 23.3 nM and the IC50 [1] is reported as 2.9 nM.

`CC(C)Oc1cnc(-c2ccccc2C(C)C)nc1NCC1CCN(c2nc(C(F)(F)F)cn2C)CC1` [Example 72, 5-Isopropoxy-2-(2-isopropylphenyl)-N-((1-(1-methyl-4-(trifluoromethyl)-1H-imidazol-2-yl)piperidin-4-yl)methyl)pyrimidin-4-amine] gave an IC50 (MDA-MB-436) of 181 nM and an IC50 [1] of 6.1 nM.

Work on `COc1cnc(-c2ccccc2C(C)C)nc1NCC12CCC(c3ccc(C(F)(F)F)cn3)(CC1)CC2` [Example 23, 2-(2-Isopropylphenyl)-5-methoxy-N-((4-(5-(trifluoromethyl)pyridin-2-yl)bicyclo[2.2.2]octan-1-yl)methyl)pyrimidin-4-amine] yielded an IC50 (MDA-MB-436) of 33.1 nM and an IC50 [1] of 33 nM.

`COc1cnc(-c2c(Cl)cnn2C(C)C)nc1NCc1ccc(-n2nc(C(F)(F)F)cc2C)cc1` [Example 165, 2-(4-Chloro-1-isopropyl-1H-pyrazol-5-yl)-5-methoxy-N-(4-(5-methyl-3-(trifluoromethyl)-1H-pyrazol-1-yl)benzyl)pyrimidin-4-amine] showed an IC50 (MDA-MB-436) of 7.1 nM and an IC50 [1] of 1.4 nM.

`COc1cnc(-c2c(OC)ncnc2C2CC2)nc1N(Cc1ccc(-c2nc(C(F)(F)F)cn2C)cc1)C1CC1` [Example 141, N,4'-Dicyclopropyl-5,6'-dimethoxy-N-(4-(1-methyl-4-(trifluoromethyl)-1H-imidazol-2-yl)benzyl)-[2,5'-bipyrimidin]-4-amine] gave an IC50 (MDA-MB-436) of 76.7 nM and an IC50 [1] of 9.5 nM.

`C#Cc1cnc(-c2c(C)cnn2C(C)C)nc1NCc1ccc(-c2nc(C(F)(F)F)cn2C)cc1` [Example 203, 5-Ethynyl-2-(1-isopropyl-4-methyl-1H-pyrazol-5-yl)-N-(4-(1-methyl-4-(trifluoromethyl)-1H-imidazol-2-vl)benzyl)pyrimidin-4-amine] showed an IC50 (MDA-MB-436) of 3.3 nM and an IC50 [1] of 1.4 nM.

With `[2H]C([2H])([2H])Oc1ncnc(C2CC2)c1-c1ncc(OC)c(N(C[C@H]2CC[C@H](c3nc(C(F)(F)F)cn3C)CC2)C([2H])([2H])[2H])n1` [Example S24, 4'-Cyclopropyl-5-methoxy-6'-(methoxy-D3)-N-(methyl-D3)-N(((1R,4R)-4-(1-methyl-4-(trifluoromethyl)-1H-imidazol-2-yl)cyclohexyl)methyl)-[2,5'-bipyrimidin]-4-amine] the IC50 (MDA-MB-436) was 4.6 nM and the IC50 [1] was 5.7 nM.

Work on `CC(C)c1ccccc1-c1ncc(N2CCN(C)CC2)c(NCc2ccc(-c3nc(C(F)(F)F)cn3C)cc2)n1` [Example 88, 2-(2-Isopropylphenyl)-N-(4-(1-methyl-4-(trifluoromethyl)-1H-imidazol-2-yl)benzyl)-5-(4-methylpiperazin-1-yl)pyrimidin-4-amine] yielded an IC50 (MDA-MB-436) of 157 nM and an IC50 [1] of 10 nM.

`CC(C)Oc1cnc(-c2ccccc2C(C)C)nc1N(C)Cc1ccc(-c2nc(C(F)(F)F)cn2C)cc1` [Example 71, 5-Isopropoxy-2-(2-isopropylphenyl)-N-methyl-N-(4-(1-methyl-4-(trifluoromethyl)-1H-imidazol-2-yl)benzyl)pyrimidin-4-amine] showed an IC50 (MDA-MB-436) of 274 nM and an IC50 [1] of 9.9 nM.

For `COc1cnc(-c2c(OC)ncnc2OC)nc1N(C)C[C@H]1CC[C@H](c2nc(C(F)(F)F)cn2C2CC2)CC1` [Example S30, N-(((1R,4R)-4-(1-cyclopropyl-4-(trifluoromethyl)-1H-imidazol-2-yl)cyclohexyl)methyl)-4',5,6'-trimethoxy-N-methyl-[2,5'-bipyrimidin]-4-amine], the IC50 (MDA-MB-436) was 31.9 nM and the IC50 [1] was 12 nM.

`COc1cc(-c2nc(C(F)(F)F)cn2C)ccc1CNc1nc(-c2ccccc2C(C)C)nc2ccoc12` [Example 81, 2-(2-Isopropylphenyl)-N-(2-methoxy-4-(1-methyl-4-(trifluoromethyl)-1H-imidazol-2-yl)benzyl)furo[3,2-d]pyrimidin-4-amine] gave an IC50 (MDA-MB-436) of 66.1 nM and an IC50 [1] of 3.7 nM.

For `COc1cc(CNc2nc(-c3c(OC)ncnc3C3CC3)ncc2OC)ccc1-n1nc(C(F)(F)F)cc1C` [Example 103, 4'-Cyclopropyl-5,6'-dimethoxy-N-(3-methoxy-4-(5-methyl-3-(trifluoromethyl)-1H-pyrazol-1-yl)benzyl)-[2,5'-bipyrimidin]-4-amine], the IC50 (MDA-MB-436) was 141 nM and the IC50 [1] was 10 nM.

With `COc1cnc(-c2c(OC)ncnc2C(F)(F)F)nc1N(C)C[C@H]1CC[C@H](c2nc(C(F)(F)F)cn2C(C)C)CC1` [Example S37, N-(((1R,4R)-4-(1-isopropyl-4-(trifluoromethyl)-1H-imidazol-2-yl)cyclohexyl)methyl)-4',5-dimethoxy-N-methyl-6'-(trifluoromethyl)-[2,5'-bipyrimidin]-4-amine] the IC50 (MDA-MB-436) was 32.6 nM and the IC50 [1] was 12 nM.

Compound `[2H]C([2H])([2H])N(CC12CCC(c3nc(C(F)(F)F)cn3C)(CC1)CC2)c1nc(-c2c(OC)ncnc2C2CC2)ncc1OC` [Example S4, 4'-Cyclopropyl-5,6'-dimethoxy-N-(methyl-d3)-N-((4-(1-methyl-4-(trifluoromethyl)-1H-imidazol-2-yl)bicyclo[2.2.2]oct-1-yl)methyl)-[2,5'-bipyrimidin]-4-amine] has an IC50 (MDA-MB-436) of 2.3 nM and an IC50 [1] of 4.9 nM.

Compound `COc1cnc(-c2cccnc2C(C)C)nc1NCC12C3C4C1C1C2C3C41c1nc(C(F)(F)F)cn1C` (stereo not drawn) [Example S42, 2-(2-isopropylpyridin-3-yl)-5-methoxy-N-((4-(1-methyl-4-(trifluoromethyl)-1H-imidazol-2-yl)cuban-1-yl)methyl)pyrimidin-4-amine] has an IC50 (MDA-MB-436) of 3.5 nM and an IC50 [1] of 1.2 nM.

Work on `COc1cnc(-c2c(Cl)cnn2C(C)C)nc1NCc1ccc(-c2nc(C(F)(F)F)cn2C)cc1` [Example 164, 2-(4-Chloro-1-isopropyl-1H-pyrazol-5-yl)-5-methoxy-N-(4-(1-methyl-4-(trifluoromethyl)-1H-imidazol-2-yl)benzyl)pyrimidin-4-amine] yielded an IC50 (MDA-MB-436) of 0.8 nM and an IC50 [1] of 1.1 nM.

`COc1ncnc(C2CC2)c1-c1ncc(OC(F)F)c(NCc2ccc(-c3nc(C(F)(F)F)cn3C)cc2)n1` [Example 134, 4'-Cyclopropyl-5-(difluoromethoxy)-6'-methoxy-N-(4-(1-methyl-4-(trifluoromethyl)-1H-imidazol-2-yl)benzyl)-[2,5'-bipyrimidin]-4-amine] was tested, and the IC50 (MDA-MB-436) was 34.1 nM and the IC50 [1] was 3.2 nM.

Work on `CCOCCOc1ccc(CNc2nc(-c3ccccc3C(C)C)ncc2OC)cc1` [Example 68, N-(4-(2-Ethoxyethoxy)benzyl)-2-(2-isopropylphenyl)-5-methoxypyrimidin-4-amine] yielded an IC50 (MDA-MB-436) of 267 nM and an IC50 [1] of 3.2 nM.

In the case of `COc1cnc(-c2c(C)cnn2C(C)C)nc1N(C)Cc1ccc(-c2nc(C(F)(F)F)cn2C)cc1` [Example 200, 2-(1-Isopropyl-4-methyl-1H-pyrazol-5-yl)-5-methoxy-N-methyl-N-(4-(1-methyl-4-(trifluoromethyl)-1H-imidazol-2-yl)benzyl)pyrimidin-4-amine], the IC50 (MDA-MB-436) is reported as 2.8 nM and the IC50 [1] is reported as 2.8 nM.

`COc1ncnc(C2CC2)c1-c1ncc(Cl)c(NCc2ccc(-c3nc(C(F)(F)F)cn3C3CC3)cc2)n1` [Example 125, 5-Chloro-4'-cyclopropyl-N-(4-(1-cyclopropyl-4-(trifluoromethyl)-1H-imidazol-2-yl)benzyl)-6'-methoxy-[2,5'-bipyrimidin]-4-amine] gave an IC50 (MDA-MB-436) of 0.5 nM and an IC50 [1] of 3.1 nM.

`COc1cnc(-c2c(OC)ncnc2C2CC2)nc1N(C)Cc1ccc(-c2nc(C(F)(F)F)cn2C(C)C)cc1` [Example 93, 4'-Cyclopropyl-N-(4-(1-isopropyl-4-(trifluoromethyl)-1H-imidazol-2-yl)benzyl)-5,6'-dimethoxy-N-methyl-[2,5'-bipyrimidin]-4-amine] gave an IC50 (MDA-MB-436) of 3.5 nM and an IC50 [1] of 1.5 nM.
